Laboratory results taken from PubChem BioAssay (NCI).
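Following 48 hours of exposure in 96-well plates, responses at five concentrations were used to interpolate endpoints linearly. Abbreviation: GI50, concentration required for 50% inhibition of growth. TGI is the concentration that stops growth completely.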

Legend:
Experiment in all cases: NCI tumour cell line growth inhibition, 48 h
786-0 renal = tested on: 786-0 renal
A498 renal = tested on: A498 renal
A549 NSCLC = tested on: A549 NSCLC
ACHN renal = tested on: ACHN renal
CAKI-1 renal = tested on: CAKI-1 renal
CCRF-CEM leukemia = tested on: CCRF-CEM leukemia
COLO 205 colon = tested on: COLO 205 colon
DU-145 prostate = tested on: DU-145 prostate
EKVX NSCLC = tested on: EKVX NSCLC
HCC-2998 colon = tested on: HCC-2998 colon
HCT-15 colon = tested on: HCT-15 colon
HL-60(TB) leukemia = tested on: HL-60(TB) leukemia
HOP-62 NSCLC = tested on: HOP-62 NSCLC
HOP-92 NSCLC = tested on: HOP-92 NSCLC
HS 578T breast = tested on: HS 578T breast
HT29 colon = tested on: HT29 colon
IGROV1 ovarian = tested on: IGROV1 ovarian
K-562 leukemia = tested on: K-562 leukemia
KM12 colon = tested on: KM12 colon
LOX IMVI melanoma = tested on: LOX IMVI melanoma
M14 melanoma = tested on: M14 melanoma
MALME-3M melanoma = tested on: MALME-3M melanoma
MCF7 breast = tested on: MCF7 breast
MDA-MB-231 breast = tested on: MDA-MB-231 breast
MDA-MB-435 = tested on: MDA-MB-435
MDA-MB-468 breast = tested on: MDA-MB-468 breast
MOLT-4 leukemia = tested on: MOLT-4 leukemia
NCI-H23 lung = tested on: NCI-H23 lung
NCI-H460 lung = tested on: NCI-H460 lung
NCI-H522 lung = tested on: NCI-H522 lung
NCI/ADR-RES ovarian = tested on: NCI/ADR-RES ovarian
OVCAR-3 ovarian = tested on: OVCAR-3 ovarian
OVCAR-4 ovarian = tested on: OVCAR-4 ovarian
OVCAR-5 ovarian = tested on: OVCAR-5 ovarian
OVCAR-8 ovarian = tested on: OVCAR-8 ovarian
PC-3 prostate = tested on: PC-3 prostate
RPMI-8226 leukemia = tested on: RPMI-8226 leukemia
RXF 393 renal = tested on: RXF 393 renal
SF-268 CNS = tested on: SF-268 CNS
SF-295 CNS = tested on: SF-295 CNS
SF-539 CNS = tested on: SF-539 CNS
SK-MEL-2 melanoma = tested on: SK-MEL-2 melanoma
SK-MEL-28 melanoma = tested on: SK-MEL-28 melanoma
SK-MEL-5 melanoma = tested on: SK-MEL-5 melanoma
SK-OV-3 ovarian = tested on: SK-OV-3 ovarian
SN12C renal = tested on: SN12C renal
SNB-19 CNS = tested on: SNB-19 CNS
SNB-75 CNS = tested on: SNB-75 CNS
SR leukemia = tested on: SR leukemia
SW-620 colon = tested on: SW-620 colon
T-47D breast = tested on: T-47D breast
TK-10 renal = tested on: TK-10 renal
U251 CNS = tested on: U251 CNS
UACC-257 melanoma = tested on: UACC-257 melanoma
UACC-62 melanoma = tested on: UACC-62 melanoma
UO-31 renal = tested on: UO-31 renal

Compound: CCC[Se]C(=O)c1ccc(C(=O)[Se]CCC)s1
- GI50 (786-0 renal): 172 nM
- TGI (786-0 renal): 2250 nM
- GI50 (A498 renal): 63.5 nM
- TGI (A498 renal): 917 nM
- GI50 (A549 NSCLC): < 10 nM
- TGI (A549 NSCLC): 85 nM
- GI50 (ACHN renal): 110 nM
- TGI (ACHN renal): 1220 nM
- GI50 (CAKI-1 renal): < 11.2 nM
- TGI (CAKI-1 renal): 175 nM
- GI50 (CCRF-CEM leukemia): 1660 nM
- TGI (CCRF-CEM leukemia): 16100 nM
- GI50 (COLO 205 colon): 639 nM
- TGI (COLO 205 colon): 2100 nM
- GI50 (DU-145 prostate): 95.5 nM
- TGI (DU-145 prostate): 1300 nM
- GI50 (EKVX NSCLC): < 24.6 nM
- TGI (EKVX NSCLC): 82.1 nM
- GI50 (HCC-2998 colon): 239 nM
- TGI (HCC-2998 colon): 1840 nM
- GI50 (HCT-15 colon): 54.6 nM
- TGI (HCT-15 colon): 217 nM
- GI50 (HL-60(TB) leukemia): < 10 nM
- TGI (HL-60(TB) leukemia): 662 nM
- GI50 (HOP-62 NSCLC): < 12 nM
- TGI (HOP-62 NSCLC): 63.3 nM
- GI50 (HOP-92 NSCLC): < 18.9 nM
- GI50 (HS 578T breast): < 10 nM
- TGI (HS 578T breast): 411 nM
- GI50 (HT29 colon): < 10 nM
- TGI (HT29 colon): 112 nM
- GI50 (IGROV1 ovarian): < 13.1 nM
- TGI (IGROV1 ovarian): 234 nM
- GI50 (K-562 leukemia): 41.4 nM
- TGI (K-562 leukemia): 21400 nM
- GI50 (KM12 colon): 27.6 nM
- TGI (KM12 colon): 1300 nM
- GI50 (LOX IMVI melanoma): < 13.1 nM
- TGI (LOX IMVI melanoma): < 34.6 nM
- GI50 (M14 melanoma): < 10 nM
- TGI (M14 melanoma): < 21.1 nM
- GI50 (MALME-3M melanoma): < 35.2 nM
- TGI (MALME-3M melanoma): 118 nM
- GI50 (MCF7 breast): < 10 nM
- TGI (MCF7 breast): 170 nM
- GI50 (MDA-MB-231 breast): < 10 nM
- TGI (MDA-MB-231 breast): < 20 nM
- GI50 (MDA-MB-435): < 10 nM
- TGI (MDA-MB-435): 19.9 nM
- GI50 (MDA-MB-468 breast): < 18 nM
- TGI (MDA-MB-468 breast): 75 nM
- GI50 (MOLT-4 leukemia): < 10 nM
- TGI (MOLT-4 leukemia): 5100 nM
- GI50 (NCI-H23 lung): 19.7 nM
- TGI (NCI-H23 lung): 114 nM
- GI50 (NCI-H460 lung): < 10 nM
- TGI (NCI-H460 lung): 10.4 nM
- GI50 (NCI-H522 lung): 943 nM
- TGI (NCI-H522 lung): 2770 nM
- GI50 (NCI/ADR-RES ovarian): < 10 nM
- GI50 (OVCAR-3 ovarian): 103 nM
- TGI (OVCAR-3 ovarian): 370 nM
- GI50 (OVCAR-4 ovarian): 2870 nM
- TGI (OVCAR-4 ovarian): 30000 nM
- GI50 (OVCAR-5 ovarian): < 16.2 nM
- TGI (OVCAR-5 ovarian): 455 nM
- GI50 (OVCAR-8 ovarian): < 10 nM
- TGI (OVCAR-8 ovarian): 45.7 nM
- GI50 (PC-3 prostate): 22.4 nM
- TGI (PC-3 prostate): 2890 nM
- GI50 (RPMI-8226 leukemia): 300 nM
- TGI (RPMI-8226 leukemia): 2000 nM
- GI50 (RXF 393 renal): < 10 nM
- TGI (RXF 393 renal): 64.4 nM
- GI50 (SF-268 CNS): < 11 nM
- TGI (SF-268 CNS): 67.5 nM
- GI50 (SF-295 CNS): < 14.4 nM
- TGI (SF-295 CNS): < 38.5 nM
- GI50 (SF-539 CNS): < 10.7 nM
- TGI (SF-539 CNS): < 21.8 nM
- GI50 (SK-MEL-2 melanoma): 40.8 nM
- TGI (SK-MEL-2 melanoma): 1140 nM
- GI50 (SK-MEL-28 melanoma): < 10 nM
- TGI (SK-MEL-28 melanoma): 29.4 nM
- GI50 (SK-MEL-5 melanoma): < 49.1 nM
- TGI (SK-MEL-5 melanoma): 159 nM
- GI50 (SK-OV-3 ovarian): 39.5 nM
- TGI (SK-OV-3 ovarian): 837 nM
- GI50 (SN12C renal): < 10 nM
- GI50 (SNB-19 CNS): < 10 nM
- TGI (SNB-19 CNS): 131 nM
- GI50 (SNB-75 CNS): < 33.6 nM
- TGI (SNB-75 CNS): 3070 nM
- GI50 (SR leukemia): 38.6 nM
- TGI (SR leukemia): 10300 nM
- GI50 (SW-620 colon): 57.3 nM
- TGI (SW-620 colon): 320 nM
- GI50 (T-47D breast): 1030 nM
- TGI (T-47D breast): 10700 nM
- GI50 (TK-10 renal): 121 nM
- TGI (TK-10 renal): 1320 nM
- GI50 (U251 CNS): < 10.6 nM
- TGI (U251 CNS): 139 nM
- GI50 (UACC-257 melanoma): 58.7 nM
- TGI (UACC-257 melanoma): 1160 nM
- GI50 (UACC-62 melanoma): 22.5 nM
- TGI (UACC-62 melanoma): 556 nM
- GI50 (UO-31 renal): < 20 nM
- TGI (UO-31 renal): 341 nM
